# What was measured:
# [1] = Water solubility in sodium phosphate buffer; assay type: physicochemical; details: for fold more soluble in water than 3a: compared with 3a
# human sEH = target: T1, human sEH (Homo sapiens, UniProt P34913); experiment: sEH inhibition, kinetic fluorescent assay; assay type: biochemical
# T1 sequence (P34913 1-555): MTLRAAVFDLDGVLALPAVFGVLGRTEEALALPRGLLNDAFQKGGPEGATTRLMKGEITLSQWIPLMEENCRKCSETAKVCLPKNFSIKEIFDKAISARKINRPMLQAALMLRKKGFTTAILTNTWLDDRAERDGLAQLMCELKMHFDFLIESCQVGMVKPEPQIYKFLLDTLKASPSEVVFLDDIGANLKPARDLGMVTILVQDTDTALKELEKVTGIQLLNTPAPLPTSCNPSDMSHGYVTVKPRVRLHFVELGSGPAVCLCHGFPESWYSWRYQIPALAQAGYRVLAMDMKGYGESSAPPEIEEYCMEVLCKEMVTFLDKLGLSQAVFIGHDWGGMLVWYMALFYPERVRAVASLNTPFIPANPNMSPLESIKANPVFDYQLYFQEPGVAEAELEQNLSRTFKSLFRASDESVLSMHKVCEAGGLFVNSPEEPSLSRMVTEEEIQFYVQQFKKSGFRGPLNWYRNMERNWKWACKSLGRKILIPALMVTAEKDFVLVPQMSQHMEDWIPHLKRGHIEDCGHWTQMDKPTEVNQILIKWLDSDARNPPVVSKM
# [2] = compared with 1a, sodium phosphate buffer pH 7.4, 0.1 M, 1% DMSO
smiles,measurement,setting,value
S=C(NC1C2CC3CC(C2)CC1C3)NC1C2CC3CC(C2)CC1C3 (stereo not drawn) [compound 5],fold more soluble in water than 3a,[1],1.5 fold
S=C(NCCc1ccccc1)NC1C2CC3CC(C2)CC1C3 (stereo not drawn) [2c],fold increase of inhibition potency vs. 2b,human sEH; compared with 2b,4 fold
CC12CC3CC(C)(C1)CC(NC(=S)NCc1ccccc1)(C3)C2 [1d],fold decrease in water solubility vs. 1a,[1]; [2],4 fold
S=C(Nc1ccccc1)NC1C2CC3CC(C2)CC1C3 (stereo not drawn) [2a],fold less potent than its urea analog,human sEH; compared with urea analog,13 fold
S=C(NC1C2CC3CC(C2)CC1C3)NC12CC3CC(CC(C3)C1)C2 (stereo not drawn) [4a],fold more soluble in water than 3a,[1],1.8 fold
S=C(NCCCCCCCCCCNC(=S)NC12CC3CC(CC(C3)C1)C2)NC12CC3CC(CC(C3)C1)C2 [6h],fold difference in water solubility vs. 6a (decrease),"[1]; compared with 6a (1,2-ethylene spacer)",3 fold
S=C(Nc1ccc(C23CC4CC(CC(C4)C2)C3)cc1)Nc1ccc(C23CC4CC(CC(C4)C2)C3)cc1 [3j],fold more soluble in water than 3a,[1],3 fold
same,fold decrease in inhibition potency vs. 3a,human sEH; compared with 3a,1367 fold
"S=C(NC12CC3CC(CC(C3)C1)C2)NC12CC3CC(CC(C3)C1)C2 [3a, di(adamantan-1yl)thiourea]",fold more water soluble than urea of corresponding structure,"[1]; compared with corresponding urea, urea data ref 17 for 3a",4.7 fold
S=C(NCCNC(=S)NC12CC3CC(CC(C3)C1)C2)NC12CC3CC(CC(C3)C1)C2 [6a],fold less potent than the rest of thioureas in this series,human sEH; compared with the other dithioureas of series 6,10–137 fold
S=C(NCc1ccccc1)NC1C2CC3CC(C2)CC1C3 (stereo not drawn) [2b],fold increase of inhibition potency vs. 2a,human sEH; compared with 2a,6.7 fold
CC12CC3CC(C)(C1)CC(NC(=S)Nc1ccccc1)(C3)C2 [1a],water solubility (in words),"[1]; sodium phosphate buffer pH 7.4, 0.1 M, 1% DMSO",poorly soluble in water
same,fold more potent than 1b,human sEH; compared with 1b,2 fold
CC12CC3CC(C)(C1)CC(NC(=S)Nc1ccc(F)cc1)(C3)C2 [1n],fold more soluble in water vs. 1a,[1]; [2],4 fold
CCC(CC12CC3CC(CC(C3)C1)C2)NC(=S)Nc1ccccc1 (stereo not drawn) [1c],fold less potent than 1a,human sEH; compared with 1a,25 fold
